Source: patent US20260355189A1, “SMALL MOLECULE INHIBITORS OF NEUTROPHIL EXOCYTOSIS AND INFLAMMATION” (THE SCRIPPS RESEARCH INSTITUTE, priority 2022, published 2026)

How the values were obtained:
[1] = test system: human neutrophils (azurophilic granule marker CD63); experiment: Flow cytometry of azurophilic granule mobilization (CD63) in human neutrophils; format: cell-based; details: Homo sapiens, Neutrophil, 1 hour, GM-CSF + fMLP, N=15 donors, FIG. 4, read-out: Mean % inhibition of CD63 up-regulation
Excerpt: (§1) Human neutrophils were isolated from normal donor's blood by Ficoll density centrifugation, as described previously (23). Murine bone marrow-derived neutrophils were isolated using a Percoll gradient fractionation system as described (24). A three-layer Percoll gradient was used (52%, 64%, and 72%), and neutrophils were isolated from the 64-72% interface, washed, and used in the assays.
(§2) Method: The up-regulation of granule membrane-associated neutrophil markers at the plasma membrane was analyzed by flow cytometry. In these studies, flow cytometry analysis was performed by resuspension of 1×10^6 human neutrophils in phenol red-free RPMI 1640 medium, treated with a 10 μM solution of Inhibitors C1, C2, C4, C5, and C6 and Nexinhib 20 (C20) or DMSO control for 1 hour, and stimulated with physiological agonists GM-CSF (10 ng/ml) for 30 min followed by the addition of fMLP (1 μM) to induce degranulation or left untreated at 37 °C (non-stimulated, NS). The reactions were stopped by transferring the samples to ice and immediately spinning down the cells to initiate blocking and staining. To analyze the plasma membrane expression of plasma membrane markers, the cells were blocked in ice-cold PBS containing 1% BSA and stained with phycoerythrin (PE)-, FITC-, or Alexa647-conjugated anti-human CD63, CD66b, MMP9, and CD11b antibodies that detect extracellular epitopes of these markers. The cells were then washed and fixed in 1% paraformaldehyde in PBS. Samples were analyzed using a NovoCyte flow cytometer, and the data were processed using FlowJo software.

[2] = test system: human neutrophils (specific granule marker CD66b); experiment: Flow cytometry of specific granule exocytosis (CD66b) in human neutrophils; format: cell-based; details: 1 hour, GM-CSF + fMLP
Excerpt: as §1, §2

[3] = test system: human neutrophils (Gelatinase granule cargo MMP9); experiment: Flow cytometry of gelatinase granule exocytosis (MMP9) in human neutrophils; format: cell-based; details: 1 hour, GM-CSF + fMLP
Excerpt: as §1, §2

[4] = test system: human neutrophils (secretory vesicle marker CD11b); experiment: Flow cytometry of secretory vesicle mobilization (CD11b) in human neutrophils; format: cell-based; details: 10 μM, 1 hour; GM-CSF + fMLP; relative to DMSO; N=15 donors; FIG. 7
Excerpt: as §1, §2

[5] = test system: neutrophils that carry the NLRP3 A350V mutation; experiment: Secretion by bone-marrow-derived neutrophils from Nlrp3 A350V (CAPS) mice; format: cell-based, mouse; details: 10 μM, 1 hour, LPS and fMLF
Excerpt: FIG. 8A-C. […] A, gelatinase (MMP9) granules; B, azurophilic granules (MPO, myeloperoxidase); C, CD63 (an endolysosomal marker). […] Subsequently, neutrophils were either stimulated with lipopolisacharide (LPS) and the chemotatctic peptide fMLF or left untreated. C20 (Nexinhib20 is used as control). Mean±SEM, n=3. In this and subsequent figures, p<0.05; **, p<0.01; ***, p<0.001; ****, p<0.0001, ANOVA.
These compounds are now tested using neutrophils from a mouse model of Cryopyrin-Associated Periodic Syndrome (CAPS), a systemic inflammatory disease in humans, caused by gain-of-function mutations of the NOD-like receptor family member, cryopirin, also known as NLRP3 (J Cin Immunol 39, 277-286, doi:10.1007/s10875-019-00638-z (2019)). Heterozygous NLRP3 mutations lead to hyper-responsive NLRP3 inflammasome function characterized by increased caspase-1 (Casp1) activation and […], and is observed in patients and in animal models with NLRP3-gain-of-function mutations. […] Subsequently, neutrophils were either stimulated with LPS and the chemotatctic peptide fMLF or left untreated.

wild-type neutrophils = experiment: Secretion by wild-type neutrophils; format: cell-based
[6] = test system: Nlrp3^A350V cre ERT2 mice; experiment: Nlrp3 A350V cre ERT2 mouse model of cryopyrin-associated periodic syndrome (CAPS); format: in vivo; details: 30 mg/Kg i.p.; for Number of leukocytes and leukocyte subtypes: 7 or 13 days, FIG. 9B; for Activation of circulating neutrophils (CD63 upregulation): FIG. 9D; for Neutrophilic infiltration into the kidney (total MMP9 and MPO levels): tissues day 13, FIG. 9F
Description: […] cre ERT2 and control mice were injected i.p. with 50 mg/kg tamoxifen followed by C6 (30 mg/Kg) or vehicle as described. B) Total leukocytes numbers and subtypes were not affected. C) Animals suffer weight loss with disease progression. D) The activation of circulating neutrophils is attenuated by C6. E, The percentage of immature (pro-inflammatory, Ly6G-) neutrophils in circulation (blood) in Nlrp3^A350V is attenuated by treatment with C6 (4.29%) as compared to vehicle (11.0%). […] F, The protection was specific for kidneys.
In this model, disease is caused by the Nlrp3^A350V mutations. The Nlrp3^A350V inducible mouse model (MWS CreT) is homologous to humans suffering from CAPS with the Muckle-Wells A352V mutation in the NLRP3 gene. The tamoxifen inducible Nrp3^A350V cre ERT2 and control animals were injected (i.p.) with 50 mg/kg tamoxifen free base to induce disease (J Immunol 189, 2707-2711, doi:10.4049/jimmunol.1101737 (2012)). The mice (6-12 weeks old) had access to food and water ad libitum. All animal studies were performed in compliance with the U.S. Department of Health and Human Services Guide for the Care and Use of Laboratory Animals and according to NIH and institutional guidelines. All animal protocols and procedures were approved by the University of California San Diego Institutional Animal Care and Use Committees (IACUC). Mice were treated with the neutrophil specific inhibitor NEIa-C6 or vehicle (5% DMSO in PBS). In this model, NLRP3^A350V disease develops progressively in 15 days after first induction with tamoxifen. Between day 0 and day 5 mice were injected (i.p) every other day with tamoxifen followed by NEIa-C6 (30 mg/Kg) or vehicle. Next, administration of NEIa-C6 or vehicle continued until day 13, in the absence of tamoxifen. Blood samples were obtained at day 7 and blood and tissues harvested at day 13. […] The effect was specific for kidneys as lung and liver infiltration was unaffected (FIG. 9G).

`CCN(CC)CCNC(=O)/C(=C/c1cccc([N+](=O)[O-])c1)n1cncn1` [154 (C6)] was tested, and the inhibition at 10 µM [1] was 58.1%, the “Inhibition of CD66b up-regulation” value ([2]; 10 μM, relative to DMSO, FIG. 5) was “reduced the up-regulation of CD66b” and the inhibition at 10 µM ([2]; Homo sapiens, Neutrophil, N=12 donors, FIG. 5, read-out: % inhibition of CD66b up-regulation) was 42.3%. For the same molecule, the “Inhibition in MMP9 experiment (words; printed as CD66b up-regulation)” value ([3]; 10 μM, relative to DMSO, FIG. 6) was “marked inhibition of CD66b up-regulation”, the inhibition at 10 µM ([3]; Homo sapiens, Neutrophil, N=12 donors, FIG. 6, read-out: % Inhibition of MMP9 up-regulation) was 54.4% and the “Release of CD11b+ vesicles / CD11b upregulation” value [4] was “unaffected”. The “Mobilization of azurophilic granules (MPO)” value ([5]; FIG. 8) was “inhibit the mobilization”, the “Mobilization of gelatinase granules (MMP9)” value ([5]; FIG. 8) was “inhibit the mobilization of gelatinase granules (MMP9)” and the “Neutrophil secretion (hyperactivation of secretion)” value ([5]; Nlrp3 A350V and wild type, FIG. 8A-C) was “inhibit the hyperactivation of secretion”. The “Mobilization of CD63” value ([5]; murine neutrophils, FIG. 8) was “significantly inhibited the mobilization of CD63”, the “Inhibitory effect on wild-type neutrophils” value (wild-type neutrophils) was “selective inhibitory effect on wild-type neutrophils” and the “Number of leukocytes and leukocyte subtypes” value ([6]; listed as C6) was “not affected”. For the same molecule, the “Number of leukocytes and leukocyte subtypes” value ([6]; listed as NEIa-C6) was “did not affect the number of any leukocyte subtype”, the “Neutrophil mediated inflammation in vivo” value ([6]; FIG. 9) was “inhibits neutrophil mediated inflammation in vivo” and the “Activation of circulating neutrophils (CD63 upregulation)” value ([6]; listed as C6) was “attenuated”. The “Activation of circulating neutrophils (CD63 upregulation)” value ([6]; listed as NEIa-C6) was “decreased neutrophil activation in vivo”, the “Lung and liver neutrophilic infiltration” value ([6]; FIG. 9G) was “unaffected” and the “Neutrophilic infiltration into the kidney (total MMP9 and MPO levels)” value ([6]; listed as C6) was “significantly decreased”. For the same molecule, the “Neutrophilic infiltration into the kidney (total MMP9 and MPO levels)” value ([6]; listed as NEIa-C6) was “significantly protected kidneys from neutrophilic infiltration”, the “Percentage of immature (pro-inflammatory, Ly6G-) neutrophils in blood” value ([6]; vehicle 11.0%, FIG. 9E) was 4.29% and the Weight loss ([6]; vs vehicle, FIG. 9C) was “partially protected from weight loss”. The “Number of pro-inflammatory immature neutrophils in blood” value ([6]; vs vehicle, FIG. 9E) was “decreased the number of pro-inflammatory immature neutrophils in blood”.
